Measured values published in ChEMBL document CHEMBL4507270 (2021).

Key:
[1] = system: Tyrosine-protein kinase ABL1 (Homo sapiens), P00519 [E255K]
[2] = target: Serine/threonine-protein kinase DCLK1 (Homo sapiens) (UniProt O15075)
[3] = target: 5-hydroxytryptamine receptor 1B (Homo sapiens) (UniProt P28222); conditions: Compound concentration 10.0 uM
[4] = target: Macrophage colony-stimulating factor 1 receptor (Homo sapiens) (UniProt P07333)
[5] = target: Cyclin-dependent kinase 14 (Homo sapiens) (UniProt O94921)
[6] = target: Dual serine/threonine and tyrosine protein kinase (Homo sapiens) (UniProt Q6XUX3)
Chain of Dual serine/threonine and tyrosine protein kinase (Homo sapiens) (Q6XUX3 whole entry): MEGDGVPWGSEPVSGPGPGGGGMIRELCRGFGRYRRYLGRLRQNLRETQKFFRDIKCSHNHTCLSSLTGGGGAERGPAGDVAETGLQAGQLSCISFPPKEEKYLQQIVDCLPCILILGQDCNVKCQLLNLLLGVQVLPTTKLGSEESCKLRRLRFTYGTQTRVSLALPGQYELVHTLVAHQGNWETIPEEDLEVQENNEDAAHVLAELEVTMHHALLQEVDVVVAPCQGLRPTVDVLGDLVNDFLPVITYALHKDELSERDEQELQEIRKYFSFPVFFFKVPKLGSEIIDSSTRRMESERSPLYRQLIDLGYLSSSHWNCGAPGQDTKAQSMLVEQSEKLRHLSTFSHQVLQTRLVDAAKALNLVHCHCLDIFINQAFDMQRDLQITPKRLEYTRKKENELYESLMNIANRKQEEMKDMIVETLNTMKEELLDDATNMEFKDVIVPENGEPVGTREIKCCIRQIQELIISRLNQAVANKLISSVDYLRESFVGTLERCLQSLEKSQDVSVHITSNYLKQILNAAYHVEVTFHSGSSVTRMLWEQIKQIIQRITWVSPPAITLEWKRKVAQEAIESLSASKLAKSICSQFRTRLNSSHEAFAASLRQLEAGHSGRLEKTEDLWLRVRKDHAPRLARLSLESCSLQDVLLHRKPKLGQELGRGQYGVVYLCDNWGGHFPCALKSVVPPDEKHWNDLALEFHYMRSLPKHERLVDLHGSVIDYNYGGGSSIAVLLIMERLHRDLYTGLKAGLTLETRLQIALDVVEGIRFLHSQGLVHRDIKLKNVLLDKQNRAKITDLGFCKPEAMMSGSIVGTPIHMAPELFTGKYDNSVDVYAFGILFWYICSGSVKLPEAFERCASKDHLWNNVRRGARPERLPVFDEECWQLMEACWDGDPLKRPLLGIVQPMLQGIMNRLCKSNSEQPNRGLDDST

[7] = target: Cyclin-dependent kinase 3 (Homo sapiens) (UniProt Q00526)
Chain of Cyclin-dependent kinase 3 (Homo sapiens) (Q00526 whole entry, looked up): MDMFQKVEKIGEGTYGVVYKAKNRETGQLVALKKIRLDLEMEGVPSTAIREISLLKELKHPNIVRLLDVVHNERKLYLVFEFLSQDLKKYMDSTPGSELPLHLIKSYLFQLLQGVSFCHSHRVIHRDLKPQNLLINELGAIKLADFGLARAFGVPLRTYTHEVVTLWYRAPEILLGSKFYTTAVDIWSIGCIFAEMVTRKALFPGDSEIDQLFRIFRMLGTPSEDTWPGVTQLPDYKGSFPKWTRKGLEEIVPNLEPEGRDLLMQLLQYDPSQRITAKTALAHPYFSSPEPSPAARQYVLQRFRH

[8] = target: Mitogen-activated protein kinase 9 (Homo sapiens) (UniProt P45984)
Chain of Mitogen-activated protein kinase 9 (Homo sapiens) (P45984 whole entry, looked up): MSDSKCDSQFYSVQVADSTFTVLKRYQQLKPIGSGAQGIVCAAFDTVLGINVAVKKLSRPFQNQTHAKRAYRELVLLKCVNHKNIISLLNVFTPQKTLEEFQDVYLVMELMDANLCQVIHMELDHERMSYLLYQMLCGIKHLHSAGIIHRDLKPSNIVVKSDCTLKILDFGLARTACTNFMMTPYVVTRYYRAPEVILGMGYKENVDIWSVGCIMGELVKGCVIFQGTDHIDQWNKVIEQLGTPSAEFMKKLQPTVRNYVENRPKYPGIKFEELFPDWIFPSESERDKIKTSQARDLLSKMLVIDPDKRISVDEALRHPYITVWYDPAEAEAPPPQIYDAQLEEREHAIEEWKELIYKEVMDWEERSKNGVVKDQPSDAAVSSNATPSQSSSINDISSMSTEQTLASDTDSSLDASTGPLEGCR

[9] = system: Mast/stem cell growth factor receptor Kit (Homo sapiens), P10721 [D816V]
[10] = target: Casein kinase I isoform alpha (Homo sapiens) (UniProt P48729)
[11] = target: Fibroblast growth factor receptor 4 (Homo sapiens) (UniProt P22455)
Chain of Fibroblast growth factor receptor 4 (Homo sapiens) (P22455 22-802 limits assumed): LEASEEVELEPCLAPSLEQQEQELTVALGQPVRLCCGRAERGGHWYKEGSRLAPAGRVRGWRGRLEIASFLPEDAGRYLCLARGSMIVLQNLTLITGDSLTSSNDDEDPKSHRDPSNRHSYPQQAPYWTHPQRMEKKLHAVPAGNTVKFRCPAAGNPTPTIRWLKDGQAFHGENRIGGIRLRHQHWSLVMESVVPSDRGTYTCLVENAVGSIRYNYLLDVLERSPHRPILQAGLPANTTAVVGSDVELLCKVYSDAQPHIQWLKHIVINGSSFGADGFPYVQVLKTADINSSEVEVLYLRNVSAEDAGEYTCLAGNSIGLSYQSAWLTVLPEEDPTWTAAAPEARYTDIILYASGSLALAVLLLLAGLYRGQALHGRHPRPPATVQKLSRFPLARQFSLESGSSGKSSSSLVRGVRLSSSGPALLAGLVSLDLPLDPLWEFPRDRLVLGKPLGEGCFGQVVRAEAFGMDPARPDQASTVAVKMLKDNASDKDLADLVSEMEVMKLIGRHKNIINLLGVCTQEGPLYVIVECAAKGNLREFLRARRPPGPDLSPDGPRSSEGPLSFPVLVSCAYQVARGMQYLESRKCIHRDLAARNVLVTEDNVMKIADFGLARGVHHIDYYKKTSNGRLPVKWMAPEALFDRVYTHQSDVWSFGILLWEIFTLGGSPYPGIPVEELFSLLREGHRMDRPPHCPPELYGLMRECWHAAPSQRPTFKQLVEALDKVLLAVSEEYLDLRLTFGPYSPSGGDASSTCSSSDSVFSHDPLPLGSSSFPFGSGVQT

[12] = target: Tyrosine-protein kinase BTK (Homo sapiens) (UniProt Q06187)
[13] = system: Leucine-rich repeat serine/threonine-protein kinase 2 (Homo sapiens), Q5S007 [G2019S]
[14] = target: Serine/threonine-protein kinase 32A (Homo sapiens) (UniProt Q8WU08)
[15] = target: Serine/threonine-protein kinase PRP4 homolog (Homo sapiens) (UniProt Q13523)
Chain of Serine/threonine-protein kinase PRP4 homolog (Homo sapiens) (Q13523 whole entry): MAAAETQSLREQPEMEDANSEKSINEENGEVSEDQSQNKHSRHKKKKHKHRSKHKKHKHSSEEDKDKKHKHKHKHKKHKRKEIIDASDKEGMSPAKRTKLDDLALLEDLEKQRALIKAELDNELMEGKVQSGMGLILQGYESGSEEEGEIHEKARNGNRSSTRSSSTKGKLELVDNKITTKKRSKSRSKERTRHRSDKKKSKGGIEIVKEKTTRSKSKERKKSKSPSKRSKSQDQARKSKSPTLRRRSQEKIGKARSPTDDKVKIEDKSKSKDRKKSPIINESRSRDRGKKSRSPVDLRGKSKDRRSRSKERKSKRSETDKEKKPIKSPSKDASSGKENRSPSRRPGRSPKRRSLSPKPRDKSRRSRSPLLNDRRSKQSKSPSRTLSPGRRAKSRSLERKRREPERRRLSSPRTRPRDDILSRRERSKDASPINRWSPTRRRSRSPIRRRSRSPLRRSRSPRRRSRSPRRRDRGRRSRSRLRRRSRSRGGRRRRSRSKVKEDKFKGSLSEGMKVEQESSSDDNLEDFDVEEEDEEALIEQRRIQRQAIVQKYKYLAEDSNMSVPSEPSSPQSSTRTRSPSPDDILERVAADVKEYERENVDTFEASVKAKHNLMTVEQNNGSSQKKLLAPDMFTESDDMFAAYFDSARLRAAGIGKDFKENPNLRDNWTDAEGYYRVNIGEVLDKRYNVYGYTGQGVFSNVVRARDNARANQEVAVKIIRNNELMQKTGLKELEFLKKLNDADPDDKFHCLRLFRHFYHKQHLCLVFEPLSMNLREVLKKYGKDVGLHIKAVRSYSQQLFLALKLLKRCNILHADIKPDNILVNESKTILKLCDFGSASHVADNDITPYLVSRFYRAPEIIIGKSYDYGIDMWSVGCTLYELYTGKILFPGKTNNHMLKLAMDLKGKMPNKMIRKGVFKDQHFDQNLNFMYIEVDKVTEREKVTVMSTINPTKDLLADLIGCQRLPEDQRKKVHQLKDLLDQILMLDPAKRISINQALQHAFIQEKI

[16] = target: Calcium/calmodulin-dependent protein kinase type 1 (Homo sapiens) (UniProt Q14012)
[17] = target: Cyclin-dependent kinase 2 homolog (Plasmodium falciparum (isolate 3D7)) (UniProt P61075)
[18] = target: Serine/threonine-protein kinase SBK1 (Homo sapiens) (UniProt Q52WX2)
Chain of Serine/threonine-protein kinase SBK1 (Homo sapiens) (Q52WX2 whole entry): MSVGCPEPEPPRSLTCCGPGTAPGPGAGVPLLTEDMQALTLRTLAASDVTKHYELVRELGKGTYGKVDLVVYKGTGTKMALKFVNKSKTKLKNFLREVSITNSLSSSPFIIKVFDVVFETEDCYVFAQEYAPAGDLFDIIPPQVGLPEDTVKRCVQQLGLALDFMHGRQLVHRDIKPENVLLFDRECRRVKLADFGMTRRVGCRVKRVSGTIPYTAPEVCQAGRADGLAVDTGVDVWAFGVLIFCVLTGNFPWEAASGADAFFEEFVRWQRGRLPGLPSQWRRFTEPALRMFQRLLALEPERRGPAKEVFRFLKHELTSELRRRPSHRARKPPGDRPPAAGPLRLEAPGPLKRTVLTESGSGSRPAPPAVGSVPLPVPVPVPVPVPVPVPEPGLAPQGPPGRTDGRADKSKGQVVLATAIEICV

[19] = target: Dual specificity protein kinase CLK2 (Homo sapiens) (UniProt P49760)
[20] = target: Cyclin-dependent kinase 18 (Homo sapiens) (UniProt Q07002)
[21] = target: Epithelial discoidin domain-containing receptor 1 (Homo sapiens, UniProt Q08345)
[22] = target: Activin receptor type-2B (Homo sapiens) (UniProt Q13705)
[23] = target: Serine/threonine-protein kinase 33 (Homo sapiens) (UniProt Q9BYT3)
[24] = target: Mitogen-activated protein kinase kinase kinase 14 (Homo sapiens) (UniProt Q99558)
[25] = system: Proto-oncogene tyrosine-protein kinase receptor Ret (Homo sapiens), P07949 [V804L]
[26] = target: RAF proto-oncogene serine/threonine-protein kinase (Homo sapiens) (UniProt P04049)
[27] = target: Cyclin-dependent kinase 16 (Homo sapiens) (UniProt Q00536)
[28] = target: Receptor-interacting serine/threonine-protein kinase 4 (Homo sapiens) (UniProt P57078)
[29] = target: Phosphatidylinositol 4-phosphate 5-kinase type-1 gamma (Homo sapiens) (UniProt O60331)
[30] = target: Casein kinase II subunit alpha (Homo sapiens) (UniProt P68400)
[31] = system: Hepatocyte growth factor receptor (Homo sapiens), P08581 [Y1235D]
[32] = target: Serine/threonine-protein kinase Nek5 (Homo sapiens) (UniProt Q6P3R8)
[33] = target: Cyclin-dependent kinase 7 (Homo sapiens) (UniProt P50613)
[34] = target: Sigma non-opioid intracellular receptor 1 (Homo sapiens) (UniProt Q99720); conditions: Compound concentration 10.0 uM
Chain of Sigma non-opioid intracellular receptor 1 (Homo sapiens) (Q99720 whole entry): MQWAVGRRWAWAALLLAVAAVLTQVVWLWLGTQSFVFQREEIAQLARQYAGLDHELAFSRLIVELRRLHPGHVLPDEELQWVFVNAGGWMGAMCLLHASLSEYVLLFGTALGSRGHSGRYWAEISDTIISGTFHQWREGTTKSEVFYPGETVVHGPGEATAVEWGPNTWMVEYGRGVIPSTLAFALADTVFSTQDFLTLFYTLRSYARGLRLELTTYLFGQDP

[35] = target: Cyclin-dependent kinase-like 2 (Homo sapiens) (UniProt Q92772)
[36] = target: Bone morphogenetic protein receptor type-1B (Homo sapiens) (UniProt O00238)
[37] = target: Ribosomal protein S6 kinase alpha-3 (Homo sapiens) (UniProt P51812)
[38] = target: Tyrosine-protein kinase SYK (Homo sapiens) (UniProt P43405)
[39] = system: Tyrosine-protein kinase ABL1 (Homo sapiens), P00519 [H396P]
[40] = target: Kappa-type opioid receptor (Homo sapiens, UniProt P41145); test: GPCRScan assay: inhibition of KOR; design: radioligand conc. used [nm] 0.6 – 1.2, parental cells stable HEK
Chain of Kappa-type opioid receptor (P41145 whole entry): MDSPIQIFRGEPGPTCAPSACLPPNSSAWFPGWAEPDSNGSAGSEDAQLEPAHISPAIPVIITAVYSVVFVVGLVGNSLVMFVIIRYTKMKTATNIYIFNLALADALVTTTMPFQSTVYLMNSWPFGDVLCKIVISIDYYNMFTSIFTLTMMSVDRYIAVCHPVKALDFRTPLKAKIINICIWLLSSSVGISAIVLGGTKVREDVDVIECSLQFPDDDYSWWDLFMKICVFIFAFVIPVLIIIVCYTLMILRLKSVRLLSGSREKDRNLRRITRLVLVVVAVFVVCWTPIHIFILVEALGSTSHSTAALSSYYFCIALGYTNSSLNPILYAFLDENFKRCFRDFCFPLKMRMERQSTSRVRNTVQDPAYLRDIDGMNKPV

[41] = target: Muscarinic acetylcholine receptor M2 (Homo sapiens) (UniProt P08172); conditions: Compound concentration 10.0 uM
Chain of Muscarinic acetylcholine receptor M2 (Homo sapiens) (P08172 whole entry, canonical isoform): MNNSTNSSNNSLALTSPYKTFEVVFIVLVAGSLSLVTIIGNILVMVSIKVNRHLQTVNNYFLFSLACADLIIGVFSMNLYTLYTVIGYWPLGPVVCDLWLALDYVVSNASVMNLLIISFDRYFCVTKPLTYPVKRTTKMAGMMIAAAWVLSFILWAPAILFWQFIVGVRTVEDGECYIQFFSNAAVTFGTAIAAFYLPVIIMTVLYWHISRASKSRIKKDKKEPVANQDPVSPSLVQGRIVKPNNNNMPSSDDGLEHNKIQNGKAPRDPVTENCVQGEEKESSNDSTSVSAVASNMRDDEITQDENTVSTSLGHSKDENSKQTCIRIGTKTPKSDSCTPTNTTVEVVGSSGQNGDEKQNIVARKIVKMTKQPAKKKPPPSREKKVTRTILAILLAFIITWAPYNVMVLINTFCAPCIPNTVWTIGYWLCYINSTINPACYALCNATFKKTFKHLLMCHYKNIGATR

[42] = target: Casein kinase I isoform delta (Homo sapiens) (UniProt P48730)
[43] = target: Protein kinase C delta type (Homo sapiens) (UniProt Q05655)
[44] = target: Insulin-like growth factor 1 receptor (Homo sapiens) (UniProt P08069)
[45] = target: Serine/threonine-protein kinase N2 (Homo sapiens) (UniProt Q16513)
[46] = Compound concentration 1000.0 nM
[47] = Compound concentration 100.0 nM

Structure (SMILES): Cc1cc(NC(=O)c2cccc(S(F)(F)(F)(F)F)c2)cc(-n2ccn3nc(-c4cccnc4)cc23)c1 [BAY-309]
- residual activity [1, 46]: 66.7%
- residual activity [2, 46]: 66.2%
- inhibition [3]: 36.8%
- residual activity [4, 46]: 100%
- residual activity [5, 46]: 93.8%
- residual activity [6, 46]: 72.8%
- residual activity [7, 46]: 100%
- residual activity [8, 46]: 76.9%
- residual activity [9, 46]: 100%
- residual activity [10, 46]: 50.7%
- residual activity [11, 46]: 100%
- residual activity [12, 46]: 83.8%
- residual activity [13, 46]: 81.3%
- residual activity [14, 46]: 100%
- residual activity [15, 46]: 99.7%
- residual activity [16, 46]: 77.9%
- residual activity [17, 46]: 71.8%
- residual activity [18, 46]: 100%
- residual activity [19, 46]: 100%
- residual activity [20, 46]: 80.6%
- residual activity [21, 46]: 0%
- residual activity [22, 46]: 100%
- residual activity [23, 46]: 87.8%
- residual activity [24, 46]: 73.8%
- residual activity [25, 46]: 100%
- residual activity [26, 46]: 29.4%
- residual activity [27, 46]: 100%
- residual activity [28, 46]: 34.1%
- residual activity [29, 46]: 100%
- residual activity [30, 46]: 66.7%
- residual activity [31, 46]: 100%
- residual activity [32, 46]: 86.8%
- residual activity [33, 46]: 100%
- inhibition [34]: 19.3%
- residual activity [35, 46]: 100%
- residual activity [36, 46]: 100%
- residual activity [37, 46]: 66.6%
- residual activity [38, 46]: 95.5%
- residual activity [39, 46]: 66.9%
- Ki ([40]; read-out: Ki): 10000 nM
- inhibition [41]: 32.7%
- residual activity [42, 46]: 100%
- residual activity [43, 46]: 95.8%
- residual activity [44, 46]: 100%
- residual activity [45, 46]: 100%

Structure (SMILES): Cc1cc(C)c(-n2ccn3nc(-c4cccnc4)cc23)cc1NC(=O)c1cc(C#N)cc(S(F)(F)(F)(F)F)c1 [BAY-826]
- residual activity [1, 47]: 74.5%
- residual activity [2, 47]: 73.6%
- inhibition [3]: 14.4%
- residual activity [4, 47]: 85.5%
- residual activity [5, 47]: 100%
- residual activity [6, 47]: 71.1%
- residual activity [7, 47]: 92.4%
- residual activity [8, 47]: 66.1%
- residual activity [9, 47]: 98.8%
- residual activity [10, 47]: 67%
- residual activity [11, 47]: 99.4%
- residual activity [12, 47]: 100%
- residual activity [13, 47]: 73.9%
- residual activity [14, 47]: 100%
- residual activity [15, 47]: 80.6%
- residual activity [16, 47]: 60.4%
- residual activity [17, 47]: 90.9%
- residual activity [18, 47]: 82.2%
- residual activity [19, 47]: 91%
- residual activity [20, 47]: 98.4%
- residual activity [21, 47]: 0.1%
- residual activity [22, 47]: 88.7%
- residual activity [23, 47]: 100%
- residual activity [24, 47]: 100%
- residual activity [25, 47]: 93.6%
- residual activity [26, 47]: 83.8%
- residual activity [27, 47]: 92.5%
- residual activity [28, 47]: 62.9%
- residual activity [29, 47]: 70.2%
- residual activity [30, 47]: 74.2%
- residual activity [31, 47]: 93.4%
- residual activity [32, 47]: 87.8%
- residual activity [33, 47]: 70.1%
- inhibition [34]: -4.84%
- residual activity [35, 47]: 75.6%
- residual activity [36, 47]: 72.3%
- residual activity [37, 47]: 84.4%
- residual activity [38, 47]: 100%
- residual activity [39, 47]: 69%
- Ki ([40]; read-out: Ki): 125 nM
- Ki ([40]; read-out: pKi (converted)): 112 nM
- inhibition [41]: 10.5%
- residual activity [42, 47]: 100%
- residual activity [43, 47]: 93.1%
- residual activity [44, 47]: 84.7%
- residual activity [45, 47]: 100%
